Data published in PubChem BioAssay AID330 (DTP/NCI, 2004).
Where “and” joins values, the source holds several entries; their conditions need not be identical. Equal entries are not always repeated. Toxic doses and inconclusive results are not listed.

System: P388 leukemia ip, CD2F1 mice, survival T/C
Experiment: NCI In Vivo Anticancer Drug Screen. Data for tumor model P388 Leukemia (intraperitoneal) in CD2F1 (CDF1) mice
Settings: endpoint: median survival time, higher = longer survival
Summary of the method: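 Mice carrying the transplanted tumor received test compound or vehicle. Survival was recorded in each group, and the value is the treated-group measurement divided by that of the vehicle-treated control group.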

[1] = dose: 6.25 mg/kg/injection, schedule: Q01DX009 (ip), vehicle: saline with Tween-80
[2] = dose: 12.5 mg/kg/injection, schedule: Q01DX009 (ip), vehicle: saline with Tween-80
[3] = dose: 25.0 mg/kg/injection, schedule: Q01DX009 (ip), vehicle: saline with Tween-80
[4] = dose: 100.0 mg/kg/injection, schedule: Q01DX009 (ip), vehicle: saline with Tween-80
[5] = dose: 200.0 mg/kg/injection, schedule: Q01DX009 (ip), vehicle: saline with Tween-80
[6] = dose: 12.5 mg/kg/injection, schedule: Q01DX009 (ip), vehicle: saline
[7] = dose: 50.0 mg/kg/injection, schedule: Q01DX009 (ip), vehicle: saline
[8] = dose: 50.0 mg/kg/injection, schedule: Q01DX009 (ip), vehicle: Klucel (hydroxypropylcellulose) (HPC)
[9] = dose: 100.0 mg/kg/injection, schedule: Q01DX009 (ip), vehicle: Klucel (hydroxypropylcellulose) (HPC)
[10] = dose: 200.0 mg/kg/injection, schedule: Q01DX009 (ip), vehicle: Klucel (hydroxypropylcellulose) (HPC)
[11] = dose: 60.0 mg/kg/injection, schedule: Q01DX005 (ip), vehicle: saline with Tween-80
[12] = dose: 50.0 mg/kg/injection, schedule: Q01DX009 (ip), vehicle: saline with Tween-80

With `COC1OC2COC(c3ccccc3)OC2C(OS(=O)(=O)c2ccc(C)cc2)C1OS(=O)(=O)c1ccc(C)cc1` (stereo not given) the T/C [1] was 114 % of control, the T/C [2] was 114 % of control and the T/C [3] was 108 % of control and 111 % of control. The T/C [4] was 87 % of control and the T/C [5] was 91 % of control.
For `CS(=O)(=O)OCCN(CCOS(C)(=O)=O)c1ccc(C=Nc2ccc(-c3csc(Cc4ccccc4)n3)cc2)cc1`, the T/C (dose: 6.25 mg/kg/injection, schedule: Q01DX009 (ip), vehicle: saline) was 115 % of control, the T/C [6] was 110 % of control and the T/C (dose: 12.5 mg/kg/injection, schedule: Q01DX009 (ip), vehicle: suspension in saline) was 163 % of control. The T/C (dose: 25.0 mg/kg/injection, schedule: Q01DX009 (ip), vehicle: suspension in saline) was 164 % of control, the T/C [7] was 153 % of control and the T/C (dose: 50.0 mg/kg/injection, schedule: Q01DX009 (ip), vehicle: suspension in saline) was 174 % of control.
With `CC(=O)/C=C/c1ccc([N+](=O)[O-])cc1` the T/C [8] was 100 % of control, the T/C [9] was 90 % of control and the T/C (dose: 100.0 mg/kg/injection, schedule: Q04DX003 (ip), vehicle: Klucel (hydroxypropylcellulose) (HPC)) was 91 % of control. The T/C [10] was 98 % of control, the T/C (dose: 200.0 mg/kg/injection, schedule: Q04DX003 (ip), vehicle: Klucel (hydroxypropylcellulose) (HPC)) was 89 % of control and the T/C (dose: 400.0 mg/kg/injection, schedule: Q04DX003 (ip), vehicle: Klucel (hydroxypropylcellulose) (HPC)) was 97 % of control.
For `CC1(c2ccccc2)CCC(=O)NC1=O` (stereo not given), the T/C [11] was 102 % of control, the T/C (dose: 120.0 mg/kg/injection, schedule: Q01DX005 (ip), vehicle: saline with Tween-80) was 101 % of control and the T/C (dose: 240.0 mg/kg/injection, schedule: Q01DX005 (ip), vehicle: saline with Tween-80) was 106 % of control.
With `O=C(/C=C/c1ccccc1)n1nnc2cc(Cl)c(Cl)cc21` the T/C [2] was 92 % of control, the T/C [3] was 115 % of control and the T/C [12] was 92 % of control. For the same compound, the T/C [4] was 99 % of control and the T/C [5] was 96 % of control.
For `COC(=O)/C=C\C(C)=C/C(=O)OC`, the T/C (dose: 50.0 mg/kg/injection, schedule: Q01DX005 (ip), vehicle: Klucel (hydroxypropylcellulose) (HPC)) was 100 % of control, the T/C (dose: 100.0 mg/kg/injection, schedule: Q01DX005 (ip), vehicle: Klucel (hydroxypropylcellulose) (HPC)) was 99 % of control and the T/C (dose: 200.0 mg/kg/injection, schedule: Q01DX005 (ip), vehicle: Klucel (hydroxypropylcellulose) (HPC)) was 99 % of control.
With `Cc1ccc(S(=O)(=O)N(CCCc2c(-c3ccccc3)nc(N)[nH]c2=O)c2ccccc2)cc1` the T/C (dose: 3.75 mg/kg/injection, schedule: Q01DX005 (ip), vehicle: saline with Tween-80) was 102 % of control, the T/C (dose: 7.5 mg/kg/injection, schedule: Q01DX005 (ip), vehicle: saline with Tween-80) was 94 % of control and the T/C (dose: 15.0 mg/kg/injection, schedule: Q01DX005 (ip), vehicle: saline with Tween-80) was 107 % of control and 87 % of control. The T/C [11] was 98 % of control and 90 % of control.
In the case of `CCN(CC)CCNC(=O)c1ccc2c(c1)C(=O)c1ccccc1C2=O`, the T/C (dose: 100.0 mg/kg/injection, schedule: Q04DX003 (ip), vehicle: saline) is reported as 108 % of control and the T/C (dose: 200.0 mg/kg/injection, schedule: Q04DX003 (ip), vehicle: saline) is reported as 119 % of control.
`OC1(c2ccccc2)C(c2ccccc2)=C(c2ccccc2)C(c2ccc(CCc3ccc(C4=C(c5ccccc5)C(O)(c5ccccc5)C(c5ccccc5)=C4c4ccccc4)cc3)cc2)=C1c1ccccc1` (stereo not given) was tested, and the T/C (dose: 6.25 mg/kg/injection, schedule: Q01DX001 (ip), vehicle: Klucel (hydroxypropylcellulose) (HPC)) was 105 % of control, the T/C (dose: 12.5 mg/kg/injection, schedule: Q01DX001 (ip), vehicle: Klucel (hydroxypropylcellulose) (HPC)) was 111 % of control and the T/C (dose: 25.0 mg/kg/injection, schedule: Q01DX001 (ip), vehicle: Klucel (hydroxypropylcellulose) (HPC)) was 90 % of control. The T/C (dose: 50.0 mg/kg/injection, schedule: Q01DX001 (ip), vehicle: Klucel (hydroxypropylcellulose) (HPC)) was 94 % of control.
With `COc1ccc(C(=O)N2CC(OC(C)=O)=CC2=O)cc1` the T/C [8] was 107 % of control, the T/C [9] was 110 % of control and the T/C [10] was 106 % of control.
In the case of `COC1(OC)C(Cl)=C(Cl)C(Cl)=C1Cl`, the T/C [1] is reported as 95 % of control, the T/C [2] is reported as 118 % of control and the T/C [3] is reported as 113 % of control.
`c1cnc2c(c1)n[n+]1[n-]c3ccccc3n21` was tested, and the T/C (dose: 60.0 mg/kg/injection, schedule: Q01DX005 (ip), vehicle: Klucel (hydroxypropylcellulose) (HPC)) was 96 % of control and the T/C (dose: 120.0 mg/kg/injection, schedule: Q01DX005 (ip), vehicle: Klucel (hydroxypropylcellulose) (HPC)) was 91 % of control.
For `CCCCCCCCCCCCCC[N+]1([O-])CCCCC1`, the T/C [6] was 100 % of control, the T/C (dose: 25.0 mg/kg/injection, schedule: Q01DX009 (ip), vehicle: saline) was 92 % of control and the T/C [7] was 106 % of control and 91 % of control.
In the case of `CS[P+]1(C)C=C(N2CCOCC2)CC1` (stereo not given), the T/C [7] is reported as 101 % of control, the T/C (dose: 100.0 mg/kg/injection, schedule: Q01DX009 (ip), vehicle: saline) is reported as 96 % of control and the T/C (dose: 200.0 mg/kg/injection, schedule: Q01DX009 (ip), vehicle: saline) is reported as 96 % of control.
With `CC(=O)Nc1cccc(N)c1` the T/C (dose: 33.0 mg/kg/injection, schedule: Q04DX003 (ip), vehicle: saline) was 95 % of control, the T/C (dose: 50.0 mg/kg/injection, schedule: Q04DX003 (ip), vehicle: saline) was 95 % of control and the T/C (dose: 75.0 mg/kg/injection, schedule: Q04DX003 (ip), vehicle: saline) was 100 % of control.
In the case of `S=P([S][Sn]([S]P(=S)(c1ccccc1)c1ccccc1)([c]1ccccc1)[c]1ccccc1)(c1ccccc1)c1ccccc1`, the T/C (dose: 1.56 mg/kg/injection, schedule: Q01DX005 (ip), vehicle: Klucel (hydroxypropylcellulose) (HPC)) is reported as 108 % of control and the T/C (dose: 3.12 mg/kg/injection, schedule: Q01DX005 (ip), vehicle: Klucel (hydroxypropylcellulose) (HPC)) is reported as 117 % of control.
With `O=C(CCN1CCCCC1)c1ccccc1` the T/C (dose: 5.0 mg/kg/injection, schedule: Q01DX009 (ip), vehicle: saline) was 100 % of control, the T/C (dose: 10.0 mg/kg/injection, schedule: Q01DX009 (ip), vehicle: saline) was 113 % of control and the T/C (dose: 20.0 mg/kg/injection, schedule: Q01DX009 (ip), vehicle: saline) was 109 % of control. For the same compound, the T/C [12] was 97 % of control.
In the case of `C=C1C(=O)O[C@H]2C[C@@H]1C(=O)C/C(C)=C/CC/C(C)=C/CC[C@@]2(C)OCSC`, the T/C (dose: 8.0 mg/kg/injection, schedule: Q01DX009 (ip), vehicle: Klucel (hydroxypropylcellulose) (HPC)) is reported as 116 % of control, the T/C (dose: 16.0 mg/kg/injection, schedule: Q01DX009 (ip), vehicle: Klucel (hydroxypropylcellulose) (HPC)) is reported as 103 % of control and the T/C (dose: 32.0 mg/kg/injection, schedule: Q01DX009 (ip), vehicle: Klucel (hydroxypropylcellulose) (HPC)) is reported as 111 % of control. For the same compound, the T/C (dose: 64.0 mg/kg/injection, schedule: Q01DX009 (ip), vehicle: Klucel (hydroxypropylcellulose) (HPC)) was 92 % of control.
In the case of `CC(C)(C)SC(=O)C1CC1`, the T/C (dose: 100.0 mg/kg/injection, schedule: Q04DX003 (ip), vehicle: saline with Tween-80) is reported as 111 % of control and the T/C (dose: 200.0 mg/kg/injection, schedule: Q04DX003 (ip), vehicle: saline with Tween-80) is reported as 102 % of control.
`CCC[CH2][Sn]1([CH2]CCC)[O]OC2(CCCCC2)[O]1` was tested, and the T/C (dose: 1.25 mg/kg/injection, schedule: Q01DX009 (ip), vehicle: saline with Tween-80) was 113 % of control and the T/C (dose: 2.5 mg/kg/injection, schedule: Q01DX009 (ip), vehicle: saline with Tween-80) was 109 % of control.
For `COC(=O)C1CC2C3C=CC(C4C(=O)NC(=O)C34)C12OC` (stereo not given), the T/C (dose: 100.0 mg/kg/injection, schedule: Q01DX001 (ip), vehicle: saline with Tween-80) was 95 % of control and the T/C (dose: 200.0 mg/kg/injection, schedule: Q01DX001 (ip), vehicle: saline with Tween-80) was 92 % of control.
`CCCCCCCCCCCCCCCCCC(=O)CC(=O)C(F)(F)F` (tested in a mixture with another compound) was tested, and the T/C [12] was 91 % of control and the T/C [4] was 92 % of control.
`O=C1C(=O)C(CN2CCOCC2)=C(N2CCOCC2)C(N2CCOCC2)=C1CN1CCOCC1` was tested, and the T/C (dose: 25.0 mg/kg/injection, schedule: Q01DX005 (ip), vehicle: saline with Tween-80) was 100 % of control, the T/C (dose: 50.0 mg/kg/injection, schedule: Q01DX005 (ip), vehicle: saline with Tween-80) was 100 % of control and the T/C (dose: 100.0 mg/kg/injection, schedule: Q01DX005 (ip), vehicle: saline with Tween-80) was 98 % of control. The T/C (dose: 200.0 mg/kg/injection, schedule: Q01DX005 (ip), vehicle: saline with Tween-80) was 100 % of control.
With `Cc1ccc(S(=O)(=O)Nc2ccccc2N(CCN(CCN(c2ccccc2NS(=O)(=O)c2ccc(C)cc2)S(=O)(=O)c2ccc(C)cc2)S(=O)(=O)c2ccc(C)cc2)S(=O)(=O)c2ccc(C)cc2)cc1` the T/C [12] was 90 % of control, the T/C [4] was 100 % of control and the T/C [5] was 90 % of control.
